Where two headings read alike, the source gives them in different places.
Assays:
[1] = Calculated log partition coefficients; format: physicochemical; settings: data from Wenkers and Lippold 1999; for log KMO:1.0: mineral oil:acidic water (pH 1.0) partition coefficient, calculated from log KOCT:1.0 − log KOCT:MO; for log KOCT:MO: octanol:mineral oil partition coefficient, calculated from log KOCT:1.0 − log KMO:1.0
[2] = Calculated solubilities in octanol, pH 7.4 buffer and acidic water; format: physicochemical; settings: data from Wenkers and Lippold 1999; for log SOCT: solubility in octanol, calculated from log KOCT:MO and log SMO; for log S7.4: solubility in pH 7.4 phosphate buffer, calculated from log SOCT − log KOCT:7.4; for log S1.0: solubility in acidic water (pH 1.0), calculated from log SMO − log KMO:1.0
Experimental: Experimental solubility in mineral oil from Wenkers and Lippold was converted to units of mM from mg/dL. The values of log S7.4 were calculated from log SOCT − log KOCT:7.4, the values of log SOCT were calculated from log KOCT:MO + log SMO, and the values of log S1.0 were calculated from log SMO − log KMO:1.0.

[3] = Stability in pH 7.1 phosphate buffer (receptor phase); format: physicochemical; settings: measured after 24 h as salicylic acid
Experimental: Molar extinction coefficients for the compounds in pH 7.1 phosphate buffer, the receptor phase, were determined experimentally. Each compound was initially dissolved in a small volume of acetonitrile (except Diflunisal, which was dissolved in ethanol). These solutions were diluted further with the buffer solution to concentrations that would produce accurate UV absorptions. A plot of absorbance versus concentration produced the slope in units of M^−1. There was only one instance of a major variation in this procedure. […] Thus, the molar extinction coefficient and the concentrations measured after 24 h were that of salicylic acid.

[4] = design: method as in Wenkers and Lippold 1999 [6]; settings: log maximum flux through human skin in vivo from mineral oil; ref Wenkers and Lippold 1999 [6]; cited from earlier work
[5] = Maximum flux through silicone membranes from mineral oil (Franz diffusion cells)
[6] = pH 7.1
[7] = log maximum flux through silicone membrane from mineral oil suspension, 32 °C, pH 7.1 phosphate buffer receptor phase, measured directly

Row | Structure (SMILES) | log KMO:1.0 [1] | log KOCT:MO [1] | log SOCT [2] | log S7.4 [2] | stability in phosphate buffer [3] | log JMHMO [4] | log JMPMO [5, 7] | log S1.0 [2] | log JMPMO ([5]; first procedure, 3 h collection intervals) | log JMPMO ([5]; repeat diffusion cell experiment with 2 h collection intervals, receptor phases ≤20% saturation) | log JMPMO [6]
1 | CC(=O)Oc1ccccc1C(=O)O [Aspirin] | −2.02 | 3.96 | 3.14 mM | 5.18 mM | readily hydrolyzed to salicylic acid and acetic acid | −1.72 µmol cm^−2 h^−1 | −1.18 µmol cm^−2 h^−1 | – | – | – | –
2 | O=C(O)Cc1ccccc1Nc1c(Cl)cccc1Cl [Diclofenac] | 1.41 | 2.91 | 1.89 mM | −0.09 mM | – | −2.89 µmol cm^−2 h^−1 | −1.91 µmol cm^−2 h^−1 | −2.43 mM | – | – | –
3 | O=C(O)c1cc(-c2ccc(F)cc2F)ccc1O [Diflunisal] | 0.88 | 3.36 | 2.19 mM | 1.61 mM | – | −2.44 µmol cm^−2 h^−1 | −1.69 µmol cm^−2 h^−1 | −2.05 mM | – | – | –
4 | O=C(O)c1ccccc1Nc1cccc(C(F)(F)F)c1 [Flufenamic Acid] | 2.74 | 1.93 | 2.46 mM | 0.31 mM | – | −1.86 µmol cm^−2 h^−1 | −0.60 µmol cm^−2 h^−1 | −2.21 mM | – | – | –
5 | CC(C)Cc1ccc(C(C)C(=O)O)cc1 (centres unmarked) [Ibuprofen] | 3.06 | 1.15 | 3.24 mM | 2.02 mM | – | −0.25 µmol cm^−2 h^−1 | 0.34 µmol cm^−2 h^−1 | −0.97 mM | – | – | –
6 | CC(C(=O)O)c1cccc(C(=O)c2ccccc2)c1 (centres unmarked) [Ketoprofen] | – | – | – | – | – | – | −1.18 µmol cm^−2 h^−1 | – | – | – | –
7 | COc1ccc2cc(CCC(C)=O)ccc2c1 [Nabumetone] | 2.72 | 0.57 | 1.76 mM | −1.12 mM | – | −1.10 µmol cm^−2 h^−1 | −1.53 µmol cm^−2 h^−1 | −1.53 mM | −1.55 | −1.53 | –
8 | COc1ccc2cc([C@H](C)C(=O)O)ccc2c1 [Naproxen] | – | – | – | – | – | – | – | – | – | – | −1.46 µmol cm^−2 h^−1
9 | CN1C(C(=O)Nc2ccccn2)=C(O)c2ccccc2S1(=O)=O [Piroxicam] | 0.20 | 1.49 | 0.75 mM | 0.95 mM | – | −2.40 µmol cm^−2 h^−1 | −2.08 µmol cm^−2 h^−1 | −0.94 mM | – | – | –
